Measured values published in PMC5406237 (Chemical research in toxicology, 2010).
pKi: −log10 of the molar value. Like-named read-outs stand apart in the source and are kept apart here.

Legend:
plasma proteins = conditions: cited from earlier work
[1] = molecular target: CYP2C9 present in the human liver microsomes (Homo sapiens, UniProt P11712); assay type: biochemical; conditions: for Ki fold above the Km for S-warfarin: human liver microsomes, marker Km
recombinant CYP2C9*1 [2] = molecular target: T1, recombinant CYP2C9*1 (Homo sapiens, UniProt P11712); test: Steady-state inhibition of S-warfarin metabolism by recombinant CYP2C9; assay type: biochemical
recombinant CYP2C9*1 [3] = molecular target: T1, recombinant CYP2C9*1; test: Uninhibited steady-state metabolism of S-warfarin by recombinant CYP2C9; conditions: S-7-hydroxywarfarin formation
[4] = molecular target: T2, pooled human liver microsomes (Homo sapiens, UniProt P11712)
recombinant CYP2C9*1 [5] = molecular target: T1, recombinant CYP2C9*1
[6] = molecular target: T2, pooled human liver microsomes; conditions: 7-hydroxywarfarin formation
CYP2C9 = conditions: binds and inhibits CYP2C9, not metabolized; cited from earlier work
Recombinant CYP2C9 = Recombinant CYP2C9 (Homo sapiens, UniProt P11712); test: P450-Glo IC50 screen of recombinant CYP2C9 activity; assay type: biochemical; conditions: relative to racemic warfarin IC50
[7] = 2.0 mg/mL microsomal protein, marker 7-hydroxywarfarin formation
[8] = results based on S-6-hydroxywarfarin formation

T2 sequence (P11712 whole entry): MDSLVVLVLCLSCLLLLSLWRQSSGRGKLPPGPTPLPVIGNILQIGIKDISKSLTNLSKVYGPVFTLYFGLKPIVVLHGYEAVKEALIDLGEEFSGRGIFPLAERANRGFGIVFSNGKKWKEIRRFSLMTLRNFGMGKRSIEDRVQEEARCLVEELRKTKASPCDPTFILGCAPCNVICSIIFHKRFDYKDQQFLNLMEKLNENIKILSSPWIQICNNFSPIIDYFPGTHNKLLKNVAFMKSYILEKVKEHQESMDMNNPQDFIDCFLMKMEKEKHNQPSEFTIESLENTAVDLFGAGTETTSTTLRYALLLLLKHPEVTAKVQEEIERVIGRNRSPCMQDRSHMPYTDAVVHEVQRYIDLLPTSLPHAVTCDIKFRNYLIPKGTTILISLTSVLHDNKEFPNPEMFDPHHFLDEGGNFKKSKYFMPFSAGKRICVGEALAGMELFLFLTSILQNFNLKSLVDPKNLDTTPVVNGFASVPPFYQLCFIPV
Chain of CYP2C9 present in the human liver microsomes (P11712 whole entry): as above
Chain of Recombinant CYP2C9 (P11712 whole entry): as above

## CC(=O)CC(c1ccc(O)cc1)c1c(O)c2ccccc2oc1=O (centres unmarked) [4′OHWAR, 4′-hydroxywarfarin]
Plasma proteins
  affinity for human plasma albumin: comparable to that of warfarin
[1]; [7]
  mechanism: competitive
[1]
  Ki fold above the Km for S-warfarin: approximately 3 fold

## CC(=O)C(O)C(c1ccccc1)c1c(O)c2ccccc2oc1=O (centres unmarked) [10OHWAR, 10-hydroxywarfarin]
Recombinant CYP2C9*1 [2]; abstract statement
  affinity fold higher than S-warfarin: approximately 3 fold
Recombinant CYP2C9*1 [2]; recombinant CYP2C9
  Ki fold lower than the Km for S-warfarin: approximately 2.5 fold
[1]
  Ki fold lower than the observed microsomal Km for S-warfarin: 2.4 fold
[1]; [7]
  mechanism: competitive

## CC(=O)CC(c1ccccc1)c1c(O)c2cccc(O)c2oc1=O (centres unmarked) [8OHWAR, 8-hydroxywarfarin]
Plasma proteins
  fold lower affinity for plasma proteins than warfarin: 3- to 4 fold
[1]; [7]
  mechanism: competitive
[1]
  Ki fold above the Km for S-warfarin: approximately 3 fold

## CC(=O)C[C@@H](c1ccccc1)c1c(O)c2ccccc2oc1=O [S-warfarin]
Recombinant CYP2C9*1 [3]
  Km: 2.3 µM
  Vmax: 68 pmol/min/nmol P450
[4]
  Km: 7.5 µM
Recombinant CYP2C9*1 [5]
  Km: 3.3 µM
[6]
  Km: 5.2 µM
  Vmax: 173 pmol/min/mg protein

## CC(=O)CC(c1ccccc1)c1c(O)c2cc(O)ccc2oc1=O (centres unmarked) [6OHWAR, 6-hydroxywarfarin]
Recombinant CYP2C9*1 [2]; up to 170 μM inhibitor
  inhibition of S-warfarin metabolism: no inhibition
Plasma proteins
  fold lower affinity for plasma proteins than warfarin: 3- to 4 fold
[1]; [7]
  mechanism: competitive
[1]
  Ki fold above the Km for S-warfarin: approximately 32 fold

## CC(=O)CC(c1ccccc1)c1c(O)c2ccc(O)cc2oc1=O (centres unmarked) [7OHWAR, 7-hydroxywarfarin]
Recombinant CYP2C9*1 [2]; [8]
  mechanism: competitive
Plasma proteins
  fold lower affinity for plasma proteins than warfarin: 3- to 4 fold
[1]
  Ki fold above the Km for S-warfarin: 8.5 fold
[1]; [8]
  mechanism: competitive
Recombinant CYP2C9
  IC50 fold higher than that observed for warfarin: approximately 8 fold
